Patent publication US7288654B2, “Fused-ring pyridine derivative, process for producing the same, and use” (Takeda Pharmaceutical Company Ltd, priority 2003, dated 2007)

Molecular target: T1, human CCR5 (Homo sapiens, UniProt P51681)
T1 construct: expressed in transfected cells
Experiment: [125I]-RANTES binding inhibition in CCR5/CHO cells (CCR5 antagonist activity)
Conditions: test compound 1 μM, 100 pM [125I]-RANTES, room temperature, 40 minutes
Description: (1) Cloning of Human CCR5 Chemokine Receptor
Cloning of a CCR5 gene was conducted from human spleen cDNA by a PCR method. Using 0.5 ng of spleen cDNA (Toyobo Co., Ltd., QUICK-Clone cDNA) as a template, the PCR reaction was carried out in a DNA Thermal Cycler 480 (Perkin Elmer) using a TaKaRa EX Taq (Takara Shuzo Co., Ltd.) (reaction conditions: 30 cycles of treatments at 95° C. for 1 minute, at 60° C. for 1 minute, and at 75° C. for 5 minutes) by adding 25 pmol of primers, SEQ ID NO. 1 (sequence length: 34; sequence type: nucleic acid; number of chains: a single chain; topology: linear; sequence kind: other nucleic acid, synthetic DNA) described in Experimental Example (1) of WO 99/32100, and SEQ ID NO. 2 (sequence length: 34; sequence type: nucleic acid; number of chains: a single chain; topology: linear; sequence kind: other nucleic acid, synthetic DNA) described in Experimental Example (1) of WO 99/32100, respectively, which were prepared by referring to the base sequence of the CCR5 gene described by Samson et al. (Biochemistry 35 (11), 3362-3367 (1996)). The PCR products were subjected to agarose gel electrophoresis to collect DNA fragments of about 1.0 kb. Then, the CCR5 gene was cloned using an Original TA Cloning Kit (Funakoshi Co., Ltd.).
(2) Preparation of Plasmid for Expression of Human CCR5
The plasmids obtained above were digested with restriction enzymes XbaI (Takara Shuzo Co., Ltd.) and BamHI (Takara Shuzo Co., Ltd.), and subjected to agarose gel electrophoresis to collect DNA fragments of about 1.0 kb. The DNA fragments and a plasmid pcDNA3.1 (Funakoshi Co., Ltd.) for expression in animal cells, which was previously digested with XbaI and BamHI, were mixed and ligated by DNA Ligation Kit Ver.2 (Takara Shuzo Co., Ltd.). Transformation of E. coli JM109 competent cells (Takara Shuzo Co., Ltd.) gave plasmid pCKR5.
(3) Introduction of the Plasmid for Expression of Human CCR5 into CHO—K1 Cells and Expression Thereof
CHO—K1 cells grown in a 750 ml tissue culture flask (Becton Dickinson) using Ham's F12 medium (Nihon Pharmaceutical Co., Ltd.) containing 10% fetal bovine serum (Lifetech Oriental) were collected from the flask by using 0.5 g/L trypsin-0.2 g/L EDTA (Lifetech Oriental). The cells were then washed with PBS (Lifetech Oriental), centrifuged (1000 rpm, 5 minutes), and suspended in PBS. Next, DNA was introduced into the cells using Gene Pulser (Bio-Rad Laboratories Inc.) under the following conditions. […]
Subsequently, the Geneticin-resistant strains were cultured in the 96-well plate (Becton Dickinson), and then CCR5-expressing cells were selected from the resistant strains. […] The cells to which the ligand bound specifically, i.e., CCR5/CHO strains, were selected by measurement of radioactivity by γ-counter. […]

T1 sequence (P51681 whole entry): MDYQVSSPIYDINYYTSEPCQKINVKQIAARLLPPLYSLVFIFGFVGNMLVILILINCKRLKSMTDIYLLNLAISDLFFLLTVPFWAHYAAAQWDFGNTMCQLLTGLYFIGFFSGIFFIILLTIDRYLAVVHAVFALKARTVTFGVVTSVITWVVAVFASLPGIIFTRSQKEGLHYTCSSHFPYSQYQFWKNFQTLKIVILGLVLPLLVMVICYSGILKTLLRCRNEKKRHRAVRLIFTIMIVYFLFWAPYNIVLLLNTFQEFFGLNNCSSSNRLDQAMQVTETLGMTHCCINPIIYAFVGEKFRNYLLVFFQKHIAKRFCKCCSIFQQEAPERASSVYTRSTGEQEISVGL

| Structure (SMILES) | Binding Inhibitory Ratio (%) |
| --- | --- |
| CCCCOCCOc1ccc(-c2cnc3c(c2)C=C(C(=O)Nc2ccc([S@@+]([O-])Cc4cncn4CCC)cc2)CCCN3CC(C)C)cc1 [Compound 1, (S)-3-[4-(2-butoxyethoxy)phenyl]-10-isobutyl-N-[4-[[(1-propyl-1H-imidazol-5-yl)methyl]sulfinyl]phenyl]-7,8,9,10-tetrahydropyrido[2,3-b]azocine-6-carboxamide] | 94% |
| CCCCOCCOc1ccc(-c2cnc3c(c2)C=C(C(=O)Nc2ccc([S@@+]([O-])Cc4cncn4CCC)cc2)CCN3CC(C)C)cc1 [Compound 3, (S)-3-[4-(2-butoxyethoxy)phenyl]-9-isobutyl-N-[4-[[(1-propyl-1H-imidazol-5-yl)methyl]sulfinyl]aniline]-8,9-dihydro-7H-pyrido[2,3-b]azepine-6-carboxamide] | 100% |
| CCCCOCCOc1ccc(-c2cnc3c(c2)C=C(C(=O)Nc2ccc(CN(C)C4CCOCC4)cc2)CCN3CC(C)C)cc1 [Compound 4, 3-[4-(2-butoxyethoxy)phenyl]-9-isobutyl-N-[4-[[methyl(tetrahydro-2H-pyran-4-yl)amino]methyl]phenyl]-8,9-dihydro-7H-pyrido[2,3-b]azepine-6-carboxamide] | 100% |
| CCCCOCCOc1ccc(-c2cnc3c(c2)C=C(C(=O)Nc2ccc([S@@+]([O-])Cc4cncn4CCC)cc2)CCCN3CCC)cc1 [Compound 2, (S)-3-[4-(2-butoxyethoxy)phenyl]-10-propyl-N-[4-[[(1-propyl-1H-imidazol-5-yl)methyl]sulfinyl]phenyl]-7,8,9,10-tetrahydropyrido[2,3-b]azocine-6-carboxamide] | 93% |
